Converted amounts (≈) assume the structure as drawn.
Key:
L. major promastigotes = assay: Leishmania promastigote assay (3H-thymidine)
[1] = tested on: Bacteroides fragilis, Clostridium perfringens, Clostridium difficele; assay type: cell-based; conditions: single concentration of compound (100 μM)
[2] = Determination of solubility in phosphate buffer pH 7.4; assay type: physicochemical; conditions: aqueous buffer at pH 7.4
Protocol: Solubility of the compounds was determined by preparing a saturated solution of compound in 0.3 M phosphate buffer (pH 7.4±0.3) in a brown glass tube. The suspensions were rotated slowly for 24 hours. Aliquots were centrifuged for 10 minutes at 14.000 rpm and supernatants were diluted in 40% (v/v) acetonitrile in water prior to HPLC analysis. Concentrations of analytes were quantified against a standard curve and used as term of solubility.
The HPLC-UV method used for the assessment of solubility is the same as used in the in vitro metabolism assay.

Eschericia coli ESS = assay: MIC determination in broth microdilution assay; conditions: H: Eschericia coli ESS; NA: no activity
[3] = tested on: Enterococcus faecalis ATCC29212; assay: MIC determination in broth microdilution assay
[4] = tested on: Staphylococcus intermedius #2357 (clinical isolate); assay: MIC determination in broth microdilution assay
[5] = tested on: Staphylococcus aureus ATCC33591 (resistant to methicillin); assay: MIC determination in broth microdilution assay
[6] = tested on: Streptococcus pneumoniae #998 (clinical isolate); assay: MIC determination in broth microdilution assay
[7] = tested on: Staphylococcus aureus ATCC29213; assay: MIC determination in broth microdilution assay
[8] = tested on: Enterococcus faecium #17501 (vancomycin-resistant clinical isolate); assay: MIC determination in broth microdilution assay
[9] = Determination of metabolic stability (liver microsomes); assay type: in vitro ADME, Wistar rat; conditions: rat liver microsomes, 20 μM, 15 min at 37° C.
Protocol: incubations were performed with Wistar rat liver microsomes (0.25 mg/ml) in 2% sodium bicarbonate solution. NADP (0.13 mg/ml), glucose-6-phosphate (0.63 mg/ml) and glucose-6-phosophate dehydrogenase (0.38 units/ml) were used as NADPH generation system and UDPGA (0.48 mg/ml) was added to include the phase II reaction, glucuronic acid conjugation, in the assay. After 5 minutes of pre-incubation the reaction was started by addition of the test article to give a final concentration of 20 μM. Samples were incubated for 15 min at 37° C. and the reactions were terminated by addition of equal volumes of acetonitrile. Blank incubations were performed at the same concentration but without addition of microsomes. Both blank and microsome-containing samples were made in replicats of three. Prior to analysis samples were centrifuged for 10 min. at 3500 rpm, HPLC system:
Initial conditions were 40% mobile phase A (acetonitrile) and 60% mobile phase B (10 mM ammonium acetate pH 9.5). During the first 20 minutes, the mobile phase was changed via a linear gradient to 90% A and 10% B. This was followed by a 5 minutes linear gradient to initial conditions, which were maintained for 5 min. The flow rate was 0.20 ml/min and injection volume 10 μl.

[10] = tested on: Plasmodium falciparum 3D7; assay: Plasmodium falciparum assay (3H-phenylalanine labelling); assay type: cell-based; conditions: Plasmodium falciparum, dose-response curve FIG. 6
[11] = D: Enterococcus faecalis ATCC29212, NA: no activity
[12] = C: Staphylococcus intermedius #2357, NA: no activity
[13] = B: Staphylococcus aureus ATCC33591 (resistant to methicillin), NA: no activity
[14] = F: Streptococcus pneumoniae #998, NA: no activity
[15] = A: Staphylococcus aureus ATCC29213, NA: no activity
[16] = E: Enterococcus faecium #17501 (vancomycin-resistant), NA: no activity

Compound: CN(C)CCNc1ccc(C(=O)/C=C/c2ccc(Cl)cc2Cl)cc1 [B022, (E)-3-(2,4-Dichloro-phenyl)-1-[4-(2-dimethylamino-ethylamino)-phenyl]-propenone]
- IC50 (L. major promastigotes; L. major): 800 nM
- activity against anaerobic bacteria [1]: activity against all microorganisms within the test panel

Compound: COc1ccc(/C=C/C(=O)c2ccccc2N(C)CCN(C)C)cc1 [B023, (E)-1-{2-[(2-Dimethylamino-ethyl)-methyl-amino]-phenyl}-3-(4-methoxy-phenyl)-propenone]
- Solubility [2]: 30600 µg/mL (≈ 90.4 mM)

Compound: CCCCN(CCCC)c1cccc(/C=C/C(=O)c2ccccc2NCCCN(C)C)c1 [B033, (E)-3-(3-Dibutylamino-phenyl)-1-[2-(3-dimethylamino-propylamino)-phenyl]-propenone]
- activity against anaerobic bacteria [1]: activity against all microorganisms within the test panel

Compound: CCCN(CCC)c1cccc(/C=C/C(=O)c2ccccc2NCCN(C)C)c1 [B035, (E)-1-[2-(2-Dimethylamino-ethylamino)-phenyl]-3-(3-dipropylamino-phenyl)-propenone]
- activity against anaerobic bacteria [1]: activity against all microorganisms within the test panel

Compound: CCCCN(CCCC)c1ccc(OC)c(/C=C/C(=O)c2ccccc2NCCN(C)C)c1 [B038, (E)-3-(5-Dibutylamino-2-methoxy-phenyl)-1-[2-(2-dimethylamino-ethylamino)-phenyl]-propenone]
- activity against anaerobic bacteria [1]: activity against all microorganisms within the test panel

Compound: CN(C)CCNc1cccc(C(=O)/C=C/c2ccc(Cl)cc2Cl)c1 [B039, (E)-3-(2,4-Dichloro-phenyl)-1-[3-(2-dimethylamino-ethylamino)-phenyl]-40 propenone]
- IC50 (L. major promastigotes; L. major): 1000 nM
- activity against anaerobic bacteria [1]: activity against all microorganisms within the test panel

Compound: CN(C)CCNc1ccc(C(=O)/C=C/c2cc(C(F)(F)F)cc(C(F)(F)F)c2)cc1 [B046, (E)-3-(3,5-Bis-trifluoromethyl-phenyl)-1-[4-(2-dimethylamino-ethylamino)-phenyl]-propenone]
- activity against anaerobic bacteria [1]: activity against all microorganisms within the test panel

Compound: COc1cc(/C=C/C(=O)c2cccc(N(C)CCN(C)C)c2)cc(OC)c1 [B047, (E)-3-(3,5-Dimethoxy-phenyl)-1-{3-[(2-dimethylamino-ethyl)-methyl-amino]-phenyl}-propenone]
- times more potent than LicA (L. major promastigotes; Leishmania Major, dose-response curve FIG. 7): 10

Compound: COc1ccccc1C(=O)/C=C/c1ccccc1N(C)CCN(C)C [B056, (E)-3-{2-[(2-Dimethylamino-ethyl)-methyl-amino]-phenyl}-1-(2-methoxy-phenyl)-propenone]
- Solubility [2]: 3200 µg/mL (≈ 9.45 mM)

Compound: CCCCc1ccc(/C=C/C(=O)c2ccc(N(C)CCN(C)C)cc2)cc1 [B060, (E)-3-(4-Butyl-phenyl)-1-{4-[(2-dimethylamino-ethyl)-methyl-amino]-phenyl}-propenone]
- activity against anaerobic bacteria [1]: activity against all microorganisms within the test panel

Compound: CN(C)CCNc1ccc(C(=O)/C=C/c2ccc3ccccc3n2)cc1 [B067, (E)-1-[4-(2-Dimethylamino-ethylamino)-phenyl]-3-quinolin-2-yl-propenone]
- IC50 (L. major promastigotes; L. major): 900 nM

Compound: COc1ccc(-c2ccccc2)cc1/C=C/C(=O)c1ccc(N(C)CCN(C)C)cc1 [B073, (E)-1-{4-[(2-Dimethylamino-ethyl)-methyl-amino]-phenyl}-3-(4-methoxy-biphenyl-3-yl)-propenone]
- activity against anaerobic bacteria [1]: activity against all microorganisms within the test panel

Compound: COc1ccc(C(=O)/C=C/c2cc(-c3ccccc3OC)ccc2N2CCN(C)CC2)c(F)c1 [B083, (E)-1-(2-Fluoro-4-methoxy-phenyl)-3-[2′-methoxy-4-(4-methyl-piperazin-1-yl)-biphenyl-3-yl]-propenone]
- IC50 (L. major promastigotes; L. major): 500 nM
- MIC (Eschericia coli ESS): 9.4 µM (≈ 4.33 µg/mL)
- MIC [3, 11]: 18.8 µM (≈ 8.66 µg/mL)
- MIC [4, 12]: 9.4 µM (≈ 4.33 µg/mL)
- MIC [5, 13]: 9.4 µM (≈ 4.33 µg/mL)
- MIC [6, 14]: 37.5 µM (≈ 17.3 µg/mL)
- MIC [7, 15]: 4.7 µM (≈ 2.16 µg/mL)
- MIC [8, 16]: 9.4 µM (≈ 4.33 µg/mL)

Compound: CCCCN(CCCC)c1ccc(/C=C/C(=O)c2cccc(NC(=O)CN(C)C)c2)cc1 [B089, (E)-N-{3-[3-(4-Dibutylamino-phenyl)-acryloyl]-phenyl}-2-dimethylamino-acetamide]
- MIC ([3]; Enterococcus faecalis, ATCC29212): 9.4 µM (≈ 4.09 µg/mL)
- MIC ([4]; Staphylococcus intermedius): 4.7 µM (≈ 2.05 µg/mL)
- MIC ([5]; Staphylococcus aureus, ATCC33591): 4.7 µM (≈ 2.05 µg/mL)
- MIC ([6]; Streptococcus pneumoniae): 37.5 µM (≈ 16.3 µg/mL)
- MIC ([7]; Staphylococcus aureus, ATCC29213): 4.7 µM (≈ 2.05 µg/mL)
- MIC ([8]; Enterococcus faecium): 9.4 µM (≈ 4.09 µg/mL)

Compound: COc1ccccc1-c1ccc(/C=C/C(=O)c2ccccc2CN(C)C)c(N2CCN(C)CC2)c1 [B096, (E)-1-(2-Dimethylaminomethyl-phenyl)-3-[2′-methoxy-3-(4-methyl-piperazin-1-yl)-biphenyl-4-yl]-propenone]
- IC50 (L. major promastigotes; L. major): 1200 nM

Compound: Cc1cc(C)cc(-c2ccc(N(C)CCN(C)C)c(/C=C/C(=O)c3cccc(NCCN(C)C)c3)c2)c1 [B113, (E)-1-[3-(2-Dimethylamino-ethylamino)-phenyl]-3-{4-[(2-dimethylamino-ethyl)-methyl-amino]-3′,5′-dimethyl-biphenyl-3-yl}-propenone]
- Metabolic turn-over in vitro [9]: 4%

Compound: COc1ccc(C(=O)/C=C/c2cc(-c3cc(C)cc(C)c3)ccc2N(C)CCN(C)C)c(CN(C)C)c1 [B114, (E)-3-{4-[(2-Dimethylamino-ethyl)-methyl-amino]-3′,5′-dimethyl-biphenyl-3-yl}-1-(2-dimethylaminomethyl-4-methoxy-phenyl)-propenone]
- Solubility [2]: 4300 µg/mL (≈ 8.61 mM)

Compound: CN(C)CCN(C)c1cc(Br)cc(/C=C/C(=O)c2ccccc2CN(C)C)c1 [B118, (E)-3-{3-Bromo-5-[(2-dimethylamino-ethyl)-methyl-amino]-phenyl}-1-(2-dimethylaminomethyl-phenyl)-propenone]
- times more potent than LicA [10]: 40

Compound: CN(C)Cc1ccccc1C(=O)/C=C/c1cc(N2CCN(C)CC2)ccc1Br [B124, (E)-3-[2-Bromo-5-(4-methyl-piperazin-1-yl)-phenyl]-1-(2-dimethylaminomethyl-phenyl)-propenone]
- Solubility [2]: 2000 µg/mL (≈ 4.52 mM)

Compound: CN(C)CCCNc1cc(Br)cc(/C=C/C(=O)c2ccccc2CN(C)C)c1 [B126, (E)-3-[3-Bromo-5-(3-dimethylamino-propylamino)-phenyl]-1-(2-dimethylaminomethyl-phenyl)-propenone]
- Solubility [2]: 8300 µg/mL (≈ 18.7 mM)

Compound: Cc1ccccc1-c1ccc(N(C)CCN(C)C)c(/C=C/C(=O)c2ccccc2CN(C)C)c1 [B148, (E)-3-{4-[(2-Dimethylamino-ethyl)-methyl-amino]-2′-methyl-biphenyl-3-yl}-1-(2-dimethylaminomethyl-phenyl)-propenone]
- Solubility [2]: 3300 µg/mL (≈ 7.24 mM)

Compound: COc1ccc(C(=O)/C=C/c2cc(-c3cc(C)cc(C)c3)ccc2N2CCN(C)CC2)c(F)c1 [B182, (E)-3-[3′,5′-Dimethyl-4-(4-methyl-piperazin-1-yl)-biphenyl-3-yl]-1-(2-fluoro-4-methoxy-phenyl)-propenone]
- MIC (Eschericia coli ESS): 75 µM (≈ 34.4 µg/mL)
- MIC [3, 11]: 9.4 µM (≈ 4.31 µg/mL)
- MIC [4, 12]: 4.7 µM (≈ 2.16 µg/mL)
- MIC [5, 13]: 4.7 µM (≈ 2.16 µg/mL)
- Metabolic turn-over in vitro [9]: 2%
- MIC [6, 14]: 18.8 µM (≈ 8.62 µg/mL)
- MIC [7, 15]: 4.7 µM (≈ 2.16 µg/mL)
- MIC [8, 16]: 4.7 µM (≈ 2.16 µg/mL)

Compound: COc1ccccc1-c1ccc(N2CCN(C)CC2)c(/C=C/C(=O)c2ccccc2NS(=O)(=O)c2ccccc2)c1 [B185, (E)-N-(2-{3-[2′-Methoxy-4-(4-methyl-piperazin-1-yl)-biphenyl-3-yl]-acryloyl}-phenyl)-benzenesulfonamide]
- IC50 (L. major promastigotes; Leishmania major): 200 nM
- Metabolic turn-over in vitro [9]: 0%

Compound: COc1ccccc1-c1ccc(/C=C/C(=O)c2ccccc2CN(C)CCN(C)C)c(N2CCN(C)CC2)c1 [B216, (E)-1-(2-{[(2-Dimethylamino-ethyl)-methyl-amino]-methyl}-phenyl)-3-[2′-methoxy-3-(4-methyl-piperazin-1-yl)-biphenyl-4-yl]-propenone]
- Metabolic turn-over in vitro [9]: 6%

Source: patent US7642367B2, “Diamino-functional chalcones” (Lica Pharmaceuticals A/S, priority 2002, dated 2010)
